Results as given in paper PMC3487892, “The Pentameric Channel of COMPcc in Complex with Different Fatty Acids” (PLoS ONE, 2012).
Numbering of substitutions follows the chain as printed.

Key:
COMPcc [1] = test system: COMPcc; parameters: method as in PMID 9736606; details: ligand bound in the channel; ref [9]; cited from earlier work
COMPcc [2] = target: T1, COMPcc (Rattus norvegicus, UniProt P35444); assay: Displacement of CPA from the CPA-COMPcc complex by fatty acids (fluorescence); type: binding; details: for Kd: calculated from [FA]1/2 of CPA displacement; for Kd / IC50: 1× PBS pH 7.4, 25°C, triplicate; for Interaction Free Energy: from Kd of CPA displacement; for IC50: read-out: [FA]1/2, fatty acid concentration that halves the CPA fluorescence, COMPcc ~0.1 µM, CPA 0.4 µM
T1 sequence (P35444 27-72): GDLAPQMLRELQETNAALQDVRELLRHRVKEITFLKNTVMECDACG
Protocol: Steady-state fluorescence spectra were measured on a Fluorolog-3 Horiba Jobin Yvon spectrofluorometer (Edison, NJ). The sample was held in a 10×10 mm quartz cuvette equipped with a continuous stirrer. The data were analyzed with Sigmaplot (Point Richmond, CA) software. The reaction was thermostatically controlled at 25°C by a Jeio-Tech refrigerating bath circulator (Des Plaines, IL). All fluorescence data were collected in 1× PBS buffer, pH 7.4. From the fluorescence enhancement profile of CPA, the fraction of ligand bound protein (f) can be calculated using: [drawing 1] (1) where F0 is the fluorescence of protein sample when no CPA has been added, F is the protein fluorescence at any given CPA concentration and F420 is the protein fluorescence in the presence of 3 µM of CPA. In the case of one ligand binding site, f follows a hyperbolic dependence upon ligand concentration given by: [drawing 2] (2) where B is a constant, Kd is the dissociation constant and [L]free is the concentration of free ligand (in this case CPA).
The probe CPA can also be used to characterize the binding of other fatty acids to COMPcc. The addition of fatty acids (FA) to the CPA-COMPcc complex will displace CPA leading to a decrease in fluorescence. […] In the case where there is no FA added the concentrations are [COMPcc] = [COMPcc]0 and [CPA]≈[CPA]0 = 0.4 µM. In this case the concentration of the CPA-COMPcc complex will be equal to: [drawing 5] (5) At [drawing 6] ,the concentration of the COMPcc-CPA complex is equal to one half the initial: [drawing 7] (6) Writing a mass balance for COMPcc we obtain: [drawing 8] (7) When [drawing 9] : [drawing 10] (8) The dissociation constant [drawing 11] can be calculated using the value of [FA]1/2 (the amount of fatty acid that reduces the CPA fluorescence to half its original value.

COMPcc [3] = target: T2, COMPcc (Rattus norvegicus, UniProt P35444, G27M/H53Q/R54Q); assay: Fluorescence enhancement of cis-parinaric acid (CPA) on binding to COMPcc
T2 construct: The coiled-coil domain of rat COMPcc comprising residues 27–72 was prepared as described previously; made in house; host or cells: E. coli
T2 sequence (P35444 27-72 G27M/H53Q/R54Q): T1 sequence (P35444 27-72) with G1M, H27Q, R28Q
Protocol: The coiled-coil domain of rat COMPcc comprising residues 27–72 was prepared as described previously. Purified COMPcc was dialyzed against PBS pH 7.4 and concentrated to 10 mg/mL using an 10 kDa Amicon membrane (Millipore).
Steady-state fluorescence spectra were measured on a Fluorolog-3 Horiba Jobin Yvon spectrofluorometer (Edison, NJ). The sample was held in a 10×10 mm quartz cuvette equipped with a continuous stirrer. The data were analyzed with Sigmaplot (Point Richmond, CA) software. The reaction was thermostatically controlled at 25°C by a Jeio-Tech refrigerating bath circulator (Des Plaines, IL). All fluorescence data were collected in 1× PBS buffer, pH 7.4. From the fluorescence enhancement profile of CPA, the fraction of ligand bound protein (f) can be calculated using: [drawing 1] (1) where F0 is the fluorescence of protein sample when no CPA has been added, F is the protein fluorescence at any given CPA concentration and F420 is the protein fluorescence in the presence of 3 µM of CPA. In the case of one ligand binding site, f follows a hyperbolic dependence upon ligand concentration given by: [drawing 2] […] Therefore, the binding of CPA to COMPcc is consistent with hyperbolic one site binding and the experimentally determined binding constant was 0.7±0.1 µM.

COMPcc [4] = details: wild type COMPcc; ref [9], [27]; cited from earlier work
Q54I = Q54I mutant; ref [9], [27]; cited from earlier work

SMILES	increase of midpoint transition temperature (Tm) of unfolding (COMPcc [1]) [°C]	Kd (COMPcc [2]) [nM]	Interaction Free Energy (COMPcc [2]) [kcal/mol]	IC50 (COMPcc [2]) [nM]	also measured
CCCCCCCC/C=C/CCCCCCCC(=O)O [18:1 trans-9 elaidic acid]	10	–	–	–	–
CCCCCCCCCCCCCC(=O)O [C14:0 [Myristic acid], Myristic acid]	–	800 ± 100	-8.31 ± 0.07	320 ± 50	–
CCCCCCCC/C=C\CCCCCCCC(=O)O [C18:1 [Oleic acid], Oleic acid]	–	900 ± 100	-8.24 ± 0.06	390 ± 50	–
CCCCCCCCCCCCCCCCCCCC(=O)O [C20:0 [Arachidic acid], Arachidic acid]	–	700 ± 100	-8.42 ± 0.08	280 ± 40	–
c1ccccc1 [benzene]	2	–	–	–	–
CC\C=C/C=C/C=C/C=C\CCCCCCCC(=O)O [cis-Parinaric acid]	–	–	–	–	Interaction Free Energy (COMPcc [3]; from Kd of direct CPA binding): -8.42 ± 0.08 kcal/mol; Kd (COMPcc [3]; hyperbolic one-site binding, excitation 320 nm, emission 420 nm, 1× PBS pH 7.4, 25°C): 700 ± 100 nM
C1CCCCC1 [cyclohexane]	2	–	–	–	–
CC1=C(/C=C/C(C)=C/C=C/C(C)=C/CO)C(C)(C)CCC1 [vitamin A]	–	–	–	–	Interaction Free Energy (COMPcc [4]): -8.4 kcal/mol; Kd (COMPcc [4]): 600 nM; Interaction Free Energy (Q54I): -8.3 kcal/mol; Kd (Q54I): 800 nM
C=C1CC[C@H](O)C/C1=C/C=C1\CCC[C@]2(C)[C@@H]([C@H](C)CCCC(C)C)CC[C@@H]12 [vitamin D3]	8	–	–	–	–
